Measurements: ChEMBL document CHEMBL3507680, “University of Dundee, Gates Library screen for HepG2 cell viability”

Test: Human HepG2 cell viability assay in 384 well format
Assay type: toxicity, cell-based
Design: dose 125 nL, time 70.5 hour; cytotoxicity at 70.5 h: concentration not given beside the values
Conditions: HepG2 cells, read-out: Inhibition

Row | SMILES | cytotoxicity at 70.5 h [%]
1 | O=C(c1cnc2c(cnn2C2CCCC2)c1)N1CCN(CCO)CC1 | 2.02
2 | NC(=O)c1cnc(NC(=O)CCc2ccco2)c(Cl)c1 | -2.14
3 | CCc1ccc(-c2cn(CCSc3ncn[nH]3)nn2)nc1 | -1.59
4 | O=C(c1cnc[nH]1)N1CCC(Oc2cccnc2)CC1 | -8.28
5 | Cc1cc(C)n(CC2CCCN2C(=O)c2cnc3n[nH]c(C)c3c2)n1 (stereo not given) | 1.22
6 | Cc1nc(CN2CCOC(CNc3cccnn3)C2)cs1 (stereo not given) | 2.31
7 | CCC(CNC(=O)c1ccc(F)cc1F)N1CCc2ccccc2C1 (stereo not given) | -7.79
8 | CN1C(=O)CO[C@H](c2ccc(NC(=O)c3cccc(F)c3)cc2)[C@H]1CO | -0.0128
9 | N#Cc1ccc(C(=O)N2CC[C@H]3[C@H]2CCN3CC2CCOCC2)cc1 | 12.2
10 | CC(C)c1nc(S(=O)(=O)Nc2ccnn2C2CCCC2)c[nH]1 | 1.34
11 | CCN1CC(=O)NCC12CCN(C(=O)c1ccno1)C2 (stereo not given) | 2.94
12 | COc1cccc(NC(=O)CC2Cn3ncnc3NC2=O)c1 (stereo not given) | -10.6
13 | CC[C@H](C)[C@H](N)C(=O)N1CC(=O)c2sc(NC3CCCCC3)nc2C1 | 3.97
14 | CCC1CN(CCNS(C)(=O)=O)c2ccccc2O1 (stereo not given) | -2.49
15 | O=C1CCCN1CC1CCCCN1C(=O)Nc1cccc(F)c1 (stereo not given) | -14.6
16 | O=C(COc1ccccc1)N1CCCC1c1ccc[nH]1 (stereo not given) | -17.9
17 | O=C1CCc2cc(S(=O)(=O)NCc3cc4n(n3)CCNC4)ccc2N1 | -16.4
18 | O=C(c1ccco1)N1CCN(Cc2nc(C3CC3)no2)CC1 | -5.91
19 | O=C(c1ccco1)N1CCCC2(CCN(c3nncs3)C2)C1 (stereo not given) | -5.1
20 | Cc1[nH]ncc1C(C)NCc1cccnc1 (stereo not given) | 5.33
21 | Cc1ccc(C2(CN3CCN(Cc4cncn4C)CC3)CC2)cc1 | 12.6
22 | O=C(c1ccccc1C1CCNC1)N1CCC(N2CCC(O)CC2)CC1 (stereo not given) | -12.4

Row | SMILES | cytotoxicity at 70.5 h [%]
23 | CC(=O)c1cn(CCC(=O)NCCCC(=O)O)c2ccccc12 | -12.2
24 | CC(C)c1noc(CCC(=O)N2CCN(Cc3ccncc3)CC2)n1 | -7.35
25 | COCCOc1ccnc(-c2noc([C@@H]3CCCN3CC(C)C)n2)c1 | -5.97
26 | O=C(Cc1csc(-c2ccsc2)n1)N1CCN(c2cnccn2)CC1 | -10.1
27 | CCC(=O)N1CCN(c2ncnc3c(C)nn(C)c23)CC1 | 15.4
28 | CC(C)c1nccc(CN(C)Cc2cnn(-c3ccccc3)c2)n1 | 26.7
29 | Cc1ccccc1-n1cnc(Cl)c1CO | 18.4
30 | CC(C)NC(=O)N1CCCC2(CCCCN2)C1 (stereo not given) | -7.7
31 | Cc1nn(C)c(N(C)C)c1CNCc1ccc2c(c1)OCO2 | 29.5
32 | CC(C)CC(=O)N1Cc2ccccc2CC1C(=O)Nc1nncs1 (stereo not given) | 1.18
33 | C=C(C)CN1CCCC(CNS(C)(=O)=O)C1 (stereo not given) | -4.35
34 | CCCn1nc2c(cc1=O)CN(Cc1ncc(C(C)(C)C)o1)CC2 | -4.85
35 | O=C(NC[C@H]1CCCC[C@H]1O)c1cccc2[nH]c(-c3cccs3)nc12 | -5.24
36 | O=C(c1cc(-n2cccn2)ccn1)N1CCOc2ncccc21 | -1.03
37 | FC(F)(F)c1ccc(-c2n[nH]c3c2CN(CC2CCOC2)CC3)cc1 (stereo not given) | -15.3
38 | OC1CCN(c2ccccc2NCc2nc(-c3ccoc3)no2)CC1 | 36.2
39 | CN(C)C(=O)CN1C[C@@H]2CC[C@H](C1)N(C(=O)Cc1ccccc1Cl)C2 | 8.11
40 | Cc1nc2c(c(=O)[nH]1)CN(C(=O)CCC1CCCN(C)C1)C2 (stereo not given) | -4.89
41 | CNC(=O)[C@H]1CCS(=O)(=O)[C@@H]2CN(Cc3ccc(OC)cc3)C[C@H]12 | -4.04
42 | CC(C)CCN1C[C@H]2C[C@H](C(=O)Nc3ccccc3)[C@@H](C1)O2 | -21.4
43 | C1CC(CN2C[C@@H]3C[C@@H](c4nnc(C5CC5)o4)O[C@@H]3C2)CCO1 | -7.69
44 | Cc1noc2nc(C3CCN(CC4CCCCC4)CC3)cc(C(F)F)c12 | 1.17

Row | SMILES | cytotoxicity at 70.5 h [%]
45 | Cc1cc(N2CCC(C(=O)NC3CC3)CC2)nc(-c2ccncc2)n1 | -7.6
46 | O=C(NC(CN1CCCC1)c1ccccc1)c1c(O)cc(F)cc1F (stereo not given) | -1.92
47 | CC1CCCCN1C1CN(c2ccnc(C(=O)NCc3ccco3)c2)C1 (stereo not given) | -15.4
48 | O=C(COc1coc(CN2CCCCC2)cc1=O)Nc1ccccc1Cl | -9.78
49 | Cc1nccn1C1CCCN(C(=O)c2ccc3c(c2)CCC3)C1 (stereo not given) | 0.881
50 | COCCN1C[C@@H]2CN(Cc3ccc(F)cc3)C[C@@H]2C1=O | -9.05
51 | Cn1ncc2c(=O)[nH]c(CN3CCCC3c3ccccc3Cl)nc21 (stereo not given) | -8.75
52 | CCc1c(C)sc2ncnc(N3CC[C@@H](N4CCC(O)CC4)[C@H](O)C3)c12 | -10.6
53 | C[C@@H]1CN(C2CCN(Cc3nn(C)c4cccc(Cl)c34)CC2)C[C@H](C)O1 | 25.7
54 | CCCS(=O)(=O)N1CCOC2(CCCN(c3ccc(C)nn3)C2)C1 (stereo not given) | -6.62
55 | CCc1cccc2c(CC(=O)N(C)CCN(C)C)c(C)[nH]c12 | -8.74
56 | CCCC(=O)Nc1cccc([C@H]2C[C@@H](NC(C)=O)CCO2)c1 | -12.2
57 | CC(C)CC(=O)N1C[C@H]2CCCN(S(=O)(=O)c3ccc(Cl)s3)[C@H]2C1 | 14.6
58 | COc1cc(Cl)cc(CN2CCCC(N3CCOCC3)C2)c1OC (stereo not given) | -5.79
59 | NC(=O)C1CCN(c2nc3nccc(-c4ccccn4)c3c(=O)[nH]2)CC1 | -3.55
60 | O=C(Nc1ccccn1)N(CCO)Cc1ccccc1Br | -2.33
61 | Cc1n[nH]c(C)c1CCN(C)C(=O)c1ccc(CCC(C)(C)O)cc1 | -3.14
62 | Cc1nc(C(C)Nc2nc3c(s2)c(C)nn3C)n[nH]1 (stereo not given) | 15.8
63 | O=C(NCC(=O)N1CCCCC1)c1ccc(Cl)cc1I | -10.6
64 | CCc1ccc(O)c(C(=O)N2CCCN(CC(=O)N(CC)CC)CC2)c1 | -0.346
65 | Cc1nc(CN2CCN(c3ccc4nncn4n3)C(C)C2)oc1C (stereo not given) | -8.63
66 | CCC(CN1CCOCC1)n1cncc1-c1ccc2c(c1)CCCN2C (stereo not given) | -6.78

Row | SMILES | cytotoxicity at 70.5 h [%]
67 | Cn1cnc2c1C(COCC1CC1)CN(C(=O)Cc1ccsc1)C2 (stereo not given) | -3.95
68 | COCC1CC2(CCN(C(=O)c3cncc(C)c3)CC2)CO1 (stereo not given) | 9.94
69 | O=C(c1ccc2[nH]ccc2c1)N1Cc2nc(CN3CCCC3)oc2C1 | -5.17
70 | Cn1nc(CN2CCCCC(N)C2)c2c(Cl)cccc21 (stereo not given) | 36.9
71 | c1cncc(OCc2n[nH]c3c2CN(Cc2cccs2)C3)c1 | -6.87
72 | CNC(=O)CN1CCO[C@H]2CN(CC3CCOCC3)C[C@H]21 | -2.33
73 | Cc1nnc(NCC(c2cccs2)N2CCCC2)c(C#N)c1C (stereo not given) | -2.36
74 | CN(C)c1ncc(C2Nc3ccccc3C3=NCCCN32)cn1 (stereo not given) | -4.88
75 | CCOCCn1nc(C)cc1C(=O)N1CCCC[C@H](N(C)C)C1 | -4.33
76 | O=C(N1CCOCC1)[C@@]12CCO[C@@H]1CCN(C1CCCC1)C2 | -15.6
77 | COc1ccc(C2CCCN2C(=O)c2ccnc(NC3CC3)c2)cc1 (stereo not given) | 6.42
78 | CN(Cc1ccsc1)C(=O)CN1CCc2c(ncn2C)C1 | 17.8
79 | O=C(COC1CCCCC1)N1CCCC(n2ccnc2)C1 (stereo not given) | -6.58
80 | Cc1cc(C(=O)N2CC[C@](C)(O)[C@H](C)C2)c(C)n1C | 18.2
81 | Cc1cc(NCc2nnc3n2CCCCC3)n2nc(C)c(C)c2n1 | -5.75
82 | CC(C)n1c2ccccc2c2c1cc(C(=O)NCCO)n2C(=O)N(C)C | -4.08
83 | CS(=O)(=O)NC1CCN(C(=O)CCC2CCCO2)CC1 (stereo not given) | -0.0133
84 | Cn1cnnc1CC1CCN(Cc2c(Cl)cncc2Cl)CC1 | 16.9
85 | CN(C)CC1CN(Cc2ccc(F)cc2)Cc2nccn2C1 (stereo not given) | -4.49
86 | COc1ccc(CCC2CCCN(C(=O)c3cnc(N)nc3C)C2)cc1 (stereo not given) | -18.9
87 | CC(C)(C)n1ncc2c1CCCC2NCc1ccc2ncccc2c1 (stereo not given) | -4.24
88 | COCCn1cc(NC(=O)NC(C)CCc2ccccc2)ccc1=O (stereo not given) | -7.43

Row | SMILES | cytotoxicity at 70.5 h [%]
89 | Cc1cccc(CN2C(=O)C[C@@H]3[C@@H]2CCN3Cc2ccsc2)n1 | -8.36
90 | O=C(c1cccnc1O)N(Cc1ccsc1)CC1CCCO1 (stereo not given) | 8.65
91 | CC(C)C[C@H](NC(=O)Cn1ccc2c(Cl)cccc21)C(=O)O | -15.2
92 | Cc1nc(CN2CCc3nn(C(C)C)c(=O)cc3C2)oc1C | 4.51
93 | COC(=O)Cn1ccc(NS(=O)(=O)c2ccc3c(c2)CCC3)n1 | 17
94 | O=C(CCN1CCOCC1)Nc1cccc(CNCc2ccsc2)c1 | 14.1
95 | O=c1[nH]c2nc(NCC3CCCO3)ncc2c(=O)n1-c1ccc(F)cc1 (stereo not given) | 1.97
96 | CC(C(=O)NCC1(c2c(F)cccc2F)CCCC1)S(C)(=O)=O (stereo not given) | -7.67
97 | CN(C)CCN(Cc1ccccc1)C(=O)CN1CCCNC1=O | -0.477
98 | CC(NCc1cnc(N2CCN(C)CC2)nc1)c1ccc(F)cc1 (stereo not given) | -6.26
99 | Cc1nc(N2C[C@H]3CNC[C@H]3C2)c2sccc2n1 | 5.86
100 | CCCN(C(=O)CN1CCN(CCO)CC1)C1=CCCCC1 | -0.879
101 | CCc1nccn1CCC(=O)N1C[C@H]2CC[C@@H]1CN(C(=O)N(C)C)C2 | -3.14
102 | CC(=O)N[C@H]1C[C@@H](c2nc(-c3ccc4c(c3)OCO4)no2)N(C)C1 | 2.89
103 | CCOc1ccc(CN2CCCC(c3nn(C)c(=O)n3CC)C2)cn1 (stereo not given) | -6.89
104 | Cc1nc(CNCC2Cn3nncc3CO2)cs1 (stereo not given) | -2.11
105 | CC(C)CN1CCNC(=O)C12CCN(C(=O)c1ccccn1)CC2 | 9.35
106 | CN1CCN(C(=O)CCCc2ccccc2)CC(O)(Cn2cccn2)C1 (stereo not given) | -2.15
107 | O=C(O)c1ncccc1OCC(F)(F)F | -0.00705
108 | CCC1=N[C@@]2(CC[C@@H]3CN(C(=O)NCC(C)C)C[C@@H]32)C(=O)N1CC(C)C | -9.11
109 | CCc1cc(C(=O)N2CC[C@@H](c3ccc4c(c3)OCO4)[C@H](O)C2)[nH]n1 | 25.7
110 | NC1CCc2c(ccc(=O)n2CC2CC2)C1 (stereo not given) | 27.6
